Experimental data from PMC5587909, “Inhibition of the ATP Synthase Eliminates the Intrinsic Resistance of Staphylococcus aureus towards Polymyxins” (mBio, 2017).
In brackets after ≈: the same amount, converted by molar mass.

How the values were obtained:
S. aureus = settings: cited from earlier work
S. aureus JE2 (WT) [1] = format: cell-based, Staphylococcus aureus; settings: 2-fold broth microdilution in TSB (100 µl), inoculum approx. 5 × 10^5 cells/ml, 37°C, 22 h
From the text: (§1) The strains used in this study include S. aureus strain JE2 (plasmid-cured derivative of USA300 LAC) and all derivative strains within the Nebraska Transposon Mutant Library (NTML), consisting of 1,920 unique transposon mutants with inactivation of nonessential genes ([15]). The bursa aurealis transposon used to create the collection contains the resistance cassette ermB, which confers resistance to erythromycin ([15]). Additionally we used S. aureus SA113 and two derivatives, SA113 ΔdltA ([9]) and SA113 ΔmprF ([10]). All bacterial strains were cultured at 37°C in tryptic soy broth (TSB) or on tryptic soy agar (TSA), with antimicrobial agents added as indicated. Two methods have been employed to determine MICs to various antimicrobial agents. (i) A 2-fold broth microdilution assay in TSB (100 µl) with an initial inoculum of approximately 5 × 10^5 cells/ml was employed to determine the MICs of polymyxin B sulfate (Sigma), gallidermin (Santa Cruz Biotechnology), nisin (Sigma), bacitracin (Sigma), and LL-37 (Isca Biochemicals). (ii) An Etest (BioMérieux) performed on TSA plates was employed to determine MICs for polymyxin B, colistin, ciprofloxacin, oxacillin, linezolid, gentamicin, vancomycin, and daptomycin. The MIC was determined upon incubation at 37°C for 22 h. When indicated, the Etest (BioMérieux) was performed on Mueller-Hinton agar plates (cation adjusted for calcium and magnesium).

[2] = system: S. aureus JE2 atpA mutant; format: cell-based, Staphylococcus aureus; settings: 2-fold broth microdilution in TSB (100 µl), inoculum approx. 5 × 10^5 cells/ml, 37°C, 22 h
From the text: as §1

[3] = system: S. aureus JE2 graR mutant; format: cell-based, Staphylococcus aureus
From the text: as §1

[4] = system: S. aureus JE2 vraF mutant; format: cell-based, Staphylococcus aureus
From the text: as §1

[5] = system: S. aureus JE2 vraG mutant; format: cell-based, Staphylococcus aureus; settings: 2-fold broth microdilution in TSB (100 µl), inoculum approx. 5 × 10^5 cells/ml, 37°C, 22 h
From the text: as §1

S. aureus JE2 (WT) [6] = assay: Kill curve experiment, polymyxin B with or without oligomycin A; format: cell-based, Staphylococcus aureus; settings: WT JE2 in TSB; oligomycin A alone at 8 μg/ml
From the text: The ATP synthase is a well-described protein complex, and multiple inhibitors have been identified that interfere with its function—e.g., the macrolide oligomycin A ([32]). […] The combinatory efficacy of PMB and oligomycin A is similar to the observed killing efficacy of PMB against the atpA mutant.
FIG 4 Improved killing efficacy of PMB upon inhibition of the ATP synthase. […] The data represent the average from three measurements, with error bars showing 95% confidence intervals.
From overnight cultures of S. aureus JE2 and the derivative atpA mutant, 100 μl was diluted into 900 μl fresh TSB medium in a Falcon tube and grown for 1 h for the cells to reach the early exponential phase. After 1 h, the cultures were diluted into 10 ml fresh TSB medium in 100-ml Erlenmeyer flasks, reaching an initial cell count of approximately 10^6 cells/ml. Oligomycin A (Sigma) was added to flasks as indicated at a concentration of 8 μg/ml. […] CFU were determined on TSA plates before addition of oligomycin A (time zero [T0]), before addition of polymyxin B (time 30 min [T30]), and every hour for the following 4 h.

[7] = system: mitochondrial ATP synthase; settings: cited from earlier work

COc1nc2ccc(Br)cc2cc1[C@@H](c1ccccc1)[C@@](O)(CCN(C)C)c1cccc2ccccc12 [Bedaquiline, bedaquiline]
activity against S. aureus (S. aureus): limited or no activity

CC[C@H](C)[C@H](NC(=O)[C@H](CCCCN)NC(=O)[C@H](CCC(=O)O)NC(=O)[C@H](CCCCN)NC(=O)[C@H](CO)NC(=O)[C@H](CCCCN)NC(=O)[C@H](CCCNC(=N)N)NC(=O)[C@H](Cc1ccccc1)NC(=O)[C@H](Cc1ccccc1)NC(=O)[C@H](CC(=O)O)NC(=O)CNC(=O)[C@H](CC(C)C)NC(=O)[C@@H](N)CC(C)C)C(=O)NCC(=O)N[C@@H](CCCCN)C(=O)N[C@@H](CCC(=O)O)C(=O)N[C@@H](Cc1ccccc1)C(=O)N[C@@H](CCCCN)C(=O)N[C@@H](CCCNC(=N)N)C(=O)N[C@H](C(=O)N[C@H](C(=O)N[C@@H](CCC(N)=O)C(=O)N[C@@H](CCCNC(=N)N)C(=O)N[C@H](C(=O)N[C@@H](CCCCN)C(=O)N[C@@H](CC(=O)O)C(=O)N[C@@H](Cc1ccccc1)C(=O)N[C@@H](CC(C)C)C(=O)N[C@@H](CCCNC(=N)N)C(=O)N[C@@H](CC(N)=O)C(=O)N[C@@H](CC(C)C)C(=O)N[C@H](C(=O)N1CCC[C@H]1C(=O)N[C@@H](CCCNC(=N)N)C(=O)N[C@H](C(=O)N[C@@H](CCC(=O)O)C(=O)N[C@@H](CO)C(=O)O)[C@@H](C)O)C(C)C)[C@@H](C)CC)C(C)C)[C@@H](C)CC [LL-37]
MIC, WT (S. aureus JE2 (WT) [1]): >128 µg/mL
MIC, atpA [2]: >128 µg/mL
MIC, graR ([3]; 2-fold broth microdilution in TSB (100 µl), inoculum approx. 5 × 10^5 cells/ml, 37°C, 22 h, graR mutant): 64 µg/mL (≈ 14.2 µM)
fold increased sensitivity relative to WT ([3]; graR mutant vs WT JE2, broth microdilution in TSB): at least 2 fold
MIC, vraF ([4]; 2-fold broth microdilution in TSB (100 µl), inoculum approx. 5 × 10^5 cells/ml, 37°C, 22 h, vraF mutant): 64 µg/mL (≈ 14.2 µM)
fold increased sensitivity relative to WT ([4]; vraF mutant vs WT JE2, broth microdilution in TSB): at least 2 fold
MIC, vraG [5]: 128 µg/mL (≈ 28.5 µM)

oligomycin A
killing efficacy (CFU over time) (S. aureus JE2 (WT) [6]): did not display any killing efficacy
inhibition of the mitochondrial ATP synthase (nonselective) [7]: inhibits the mitochondrial ATP synthase
